Source: US20230157996A1, “SMALL-MOLECULE INHIBITOR TARGETING EB VIRUS NUCLEAR ANTIGEN PROTEIN, PREPARATION METHOD AND USE THEREOF” (priority 2020, published 2023)

tested on: C666-1 cells; assay: C666-1 cell viability single concentration (50 μM) inhibition rate (Resazurin); format: cell-based; conditions: Homo sapiens, C6661, 72 h, 50 μM compound, 72 hours, C666-1 cells; read-out: C666-1 cell viability single concentration (50 μM) inhibition rate, Ratio* (Inh %)
Procedure, shortened: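 Resazurin fluorescence (560/590 nm, 3 h development) gave the proliferation inhibition rate, normalised to DMSO-treated and cell-free blank wells. Compound was tested at a single 50 μmol/L final concentration on C666-1 cells for 72 h at 37° C, with duplicate wells, after 24 h seeding.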

Q: How did the inhibition at 50 µM turn out when `CS(=O)(=O)Nc1ccc(OC2CN(c3cccc(C(=O)O)c3-n3cccc3)C2)cc1` [Example 125, 3-(3-(4-(methylsulfonamido)phenoxy)azetidin-1-yl)-2-(1H-pyrrol-1-yl)benzoic acid] was run?
A: < 10%

Q: Which inhibition at 50 µM does the source give for `COC(=O)c1cccc(N2CC(Oc3cccc(NC(=O)Nc4ccc(OC(F)(F)F)cc4)c3)C2)c1-n1cccc1` [Example 295, Methyl 3-(3-(3-(3-(4-(trifluoromethoxy)phenyl)ureido)phenoxy)azetidin-1-yl)-2-(1H-pyrrol-1-yl)benzoate] here?
A: > 50%

Q: How did the inhibition at 50 µM turn out when `COC(=O)c1cccc(C23CC(c4ccccc4)(C2)C3)c1-n1cccc1` [Compound 5, Methyl 3-(3-phenylbicyclo[1.1.1]pentan-1-yl)-2-(1H-pyrrol-1-yl)benzoate] was run?
A: < 10%

Q: `COC(=O)c1cccc(N2CC(Oc3cc(F)nc(F)c3)C2)c1-n1cccc1` [Example 284, Methyl 3-(3-((2,6-difluoropyridin-4-yl)oxy)azetidin-1-yl)-2-(1H-pyrrol-1-yl)benzoate] was tested. Which inhibition at 50 µM did it give?
A: < 10%

Q: `COC(=O)c1cccc(N2CC(NS(=O)(=O)C3CC3)C2)c1-n1cccc1` [Example 182, Methyl 3-(3-(cyclopropylsulfonamido)azetidin-1-yl)-2-(1H-pyrrol-1-yl)benzoate] was tested. Which inhibition at 50 µM did it give?
A: 10 to 30%

Q: With `Nc1ccccc1N1CC2(C1)CN(c1cccc(C(=O)O)c1-n1cccc1)C2` [Compound 20, 3-(6-(2-aminophenyl)-2,6-diazaspiro[3.3]heptan-2-yl)-2-(1H-pyrrol-1-yl)benzoic acid] as the molecule, how does the inhibition at 50 µM read?
A: < 10%

Q: With `O=C(O)c1cccc(N2CC(Oc3ccc(COCCO)cc3)C2)c1-n1cccc1` [Example 373] as the molecule, how does the inhibition at 50 µM read?
A: < 10%

Q: For `O=C(O)c1cccc(N2CC3(CN(c4ccccc4)C3)C2)c1-n1cccc1` [Compound 11, 3-(6-phenyl-2,6-diazaspiro[3.3]heptan-2-yl)-2-(1H-pyrrol-1-yl)benzoic acid], which inhibition at 50 µM is on record?
A: < 10%

Q: For `COC(=O)c1cccc(N2CC(Oc3ccc(CO)cc3)C2)c1-c1ccccc1` [Compound 41, Methyl 6-(3-(4-(hydroxymethyl)phenoxy)azetidin-1-yl)-[1,1′-biphenyl]-2-formate], which inhibition at 50 µM is on record?
A: 10 to 30%

Q: How did the inhibition at 50 µM turn out when `CCCOc1ccc(OC2CN(c3cccc(C(=O)OC)c3-n3cccc3)C2)cc1` [Example 105, Methyl 3-(3-(4-propoxyphenoxy)azetidin-1-yl)-2-(1H-pyrrol-1-yl)benzoate] was run?
A: < 10%

Q: With `COC(=O)c1cccc(N2CC(Oc3ccc(CO)cc3)C2)c1-c1cccc(OC)c1` [Compound 66, Methyl 3′-methoxy-6-(3-(4-(hydroxymethyl)phenoxy)azetidin-1-yl)-[1,1′-biphenyl]-2-formate] as the molecule, how does the inhibition at 50 µM read?
A: 30 to 50%

Q: How did the inhibition at 50 µM turn out when `COC(=O)c1cccc(N2CC(OCc3cnccn3)C2)c1-n1cccc1` [Example 142] was run?
A: < 10%

Q: Which inhibition at 50 µM does the source give for `COC(=O)c1cccc(N2CC(Oc3ccc(Oc4ccc(C(F)(F)F)cc4)cc3)C2)c1-n1cccc1` [Example 291, Methyl 3-(3-(4-(4-(trifluoromethyl)phenoxy)phenoxy)azetidin-1-yl)2-(1H-pyrrol-1-yl)benzoate] here?
A: < 10%

Q: `Cc1ccc(S(=O)(=O)N(Cc2ccccc2)C2CN(c3cccc(C(=O)O)c3-n3cccc3)C2)cc1` [Example 185, 3-(3-((N-benzyl-4-methylphenyl)sulfonamido)azetidin-1-yl)-2-(1H-pyrrol-1-yl) benzoic acid] was tested. Which inhibition at 50 µM did it give?
A: < 10%

Q: `O=C(O)c1cccc(N2CC(Oc3ccc(CO)cc3)C2)c1-c1ccc2ccsc2c1` [Compound 44, 2-(benzo[b]thiophen-6-yl)-3-(3-(4-(hydroxymethyl)phenoxy)azetidin-1-yl)benzoic acid] was tested. Which inhibition at 50 µM did it give?
A: < 10%

Q: How did the inhibition at 50 µM turn out when `COC(=O)c1cccc(N2CC(Sc3ccc(C(C)C)cc3)C2)c1-n1cccc1` [Example 348, Methyl 3-(3-((4-isopropylphenyl)thio)azetidin-1-yl)-2-(1H-pyrrol-1-yl)benzoate] was run?
A: < 10%

Q: For `COC(=O)c1cccc(N2CC(Oc3ccc(CO)cc3)C2)c1-c1ccoc1` [Compound 48], which inhibition at 50 µM is on record?
A: > 50%

Q: `CCOCc1ccc(OC2CN(c3cccc(C(=O)O)c3-n3cccc3)C2)cc1` [Example 233, 3-(3-(4-(ethoxymethyl)phenoxy)azetidin-1-yl)-2-(1H-pyrrol-1-yl)benzoic acid] was tested. Which inhibition at 50 µM did it give?
A: < 10%

Q: How did the inhibition at 50 µM turn out when `O=C(O)c1cccc(C#CN2Cc3ccccc3S2(=O)=O)c1-n1cccc1` [Example 379] was run?
A: > 50%

Q: With `COC(=O)c1cccc(N2CC(OC(=S)Nc3ccc(Br)cc3)C2)c1-n1cccc1` [Example 156, Methyl 3-(3-(((4-bromophenyl)thiocarbamoyl)oxy)azetidin-1-yl)-2-(1H-pyrrol-1-yl)benzoate] as the molecule, how does the inhibition at 50 µM read?
A: 30 to 50%

Q: `COC(=O)c1cccc(N2CC(Oc3ccc(COC4CCOCC4)cc3)C2)c1-n1cccc1` [Example 113, Methyl 2-(1H-pyrrol-1-yl)-3-(3-(4-(((tetrahydro-2H-pyran-4-yl)oxy)methyl)phenoxy)azetidin-1-yl)benzoate] was tested. Which inhibition at 50 µM did it give?
A: > 50%

Q: How did the inhibition at 50 µM turn out when `Cc1ccc(S(=O)(=O)n2ccc3cc(OC4CN(c5cccc(C(=O)O)c5-n5cccc5)C4)ccc32)cc1` [Example 305, 3-(3-((1-p-tolylsulfonyl-1H-indol-5-yl)oxy)azetidin-1-yl)-2-(1H-pyrrol-1-yl)benzoic acid] was run?
A: < 10%

Q: Which inhibition at 50 µM does the source give for `O=C(O)c1cccc(N2CC(Oc3ccc(COC4CCOCC4)cc3)C2)c1-n1cccc1` [Example 394, 2-(1H-pyrrol-1-yl)-3-(3-(4-(((tetrahydro-2H-pyran-4-yl)oxy)methyl)phenoxy)azetidin-1-yl)benzoic acid] here?
A: < 10%

Q: For `COCCOc1ccc(OC2CN(c3cccc(C(=O)O)c3-n3cccc3)C2)cc1` [Example 225, 3-(3-(4-(2-methoxyethoxy)phenoxy)azetidin-1-yl)-2-(1H-pyrrol-1-yl)benzoic acid], which inhibition at 50 µM is on record?
A: 10 to 30%

Q: How did the inhibition at 50 µM turn out when `COC(=O)c1cccc(C#CN(CC2CCN(C)CC2)S(=O)(=O)c2ccc(C)cc2)c1-n1cccc1` [Example 318, Methyl 3-(((4-methyl-N-((1-methylpiperidin-4-yl)methyl)phenyl)sulfonamido)ethynyl)-2-(1H-pyrrol-1-yl)benzoate] was run?
A: > 50%

Q: Which inhibition at 50 µM does the source give for `COC(=O)c1cccc(N2CC(Oc3ccc(NS(=O)(=O)C4CC4)cc3)C2)c1-n1cccc1` [Example 126, Methyl 3-(3-(4-(cyclopropylsulfonamido)phenoxy)azetidin-1-yl)-2-(1H-pyrrol-1-yl)benzoate] here?
A: > 50%

Q: With `COC(=O)c1cccc(N2CC(Oc3ccc(CO)cc3)C2)c1-c1ccc(-c2ccccc2)cc1` [Compound 63, Methyl 6-(3-(4-(hydroxymethyl)phenoxy)azetidin-1-yl)-[1,1′:4′,1″-terphenyl]-2-formate] as the molecule, how does the inhibition at 50 µM read?
A: 10 to 30%

Q: With `O=C(Nc1ccc(OC2CN(c3cccc(C(=O)O)c3-n3cccc3)C2)cc1)NC1CCCCC1` [Example 131, 3-(3-(4-(3-cyclohexylureido)phenoxy)azetidin-1-yl)-2-(1H-pyrrol-1-yl)benzoic acid] as the molecule, how does the inhibition at 50 µM read?
A: < 10%

Q: How did the inhibition at 50 µM turn out when `O=C(O)c1cccc(N2CC(Oc3ccc(Oc4ccccc4)c(Cl)c3)C2)c1-n1cccc1` [Example 199, 3-(3-(3-chloro-4-phenoxyphenoxy)azetidin-1-yl)-2-(1H-pyrrol-1-yl)benzoic acid] was run?
A: 30 to 50%

Q: Which inhibition at 50 µM does the source give for `O=C(O)c1cccc(N2CC(Oc3ccc(O)cc3)C2)c1-n1cccc1` [Example 188, 3-(3-(4-hydroxylphenoxy)azetidin-1-yl)-2-(1H-pyrrol-1-yl)benzoic acid] here?
A: < 10%

Q: How did the inhibition at 50 µM turn out when `O=C(Nc1ccc(OC2CN(c3cccc(C(=O)O)c3-n3cccc3)C2)cc1)Nc1ccc(C(F)(F)F)cc1` [Example 230, 3-(3-(4-(3-(4-(trifluoromethyl)phenyl)ureido)phenoxy)azetidin-1-yl)-2-(1H-pyrrol-1-yl)benzoic acid] was run?
A: 10 to 30%

Q: How did the inhibition at 50 µM turn out when `O=C(O)c1cccc(N2CC(OC(=S)Nc3ccc(Br)cc3)C2)c1-n1cccc1` [Example 157, 3-(3-(((4-bromophenyl)thiocarbamoyl)oxy)azetidin-1-yl)-2-(1H-pyrrol-1-yl)benzoic acid] was run?
A: < 10%

Q: How did the inhibition at 50 µM turn out when `COC(=O)c1cccc(N2CC(Sc3ccc(Cl)cc3)C2)c1-n1cccc1` [Example 349, Methyl 3-(3-((4-chlorophenyl)thio)azetidin-1-yl)-2-(1H-pyrrol-1-yl)benzoate] was run?
A: < 10%

Q: For `COC(=O)c1cccc(N2CC(Oc3ccc(Oc4cccc(OC)c4)cc3)C2)c1-n1cccc1` [Example 196, Methyl 3-(3-(4-(3-methoxyphenoxy)phenoxy)azetidin-1-yl)-2-(1H-pyrrol-1-yl)benzoate], which inhibition at 50 µM is on record?
A: < 10%

Q: With `O=C(O)c1cccc(N2CC(Oc3ccc(COc4ccc(F)cc4)cc3)C2)c1-n1cccc1` [Example 246, 3-(3-(4-((4-fluorophenoxy)methyl)phenoxy)azetidin-1-yl)-2-(1H-pyrrol-1-yl)benzoic acid] as the molecule, how does the inhibition at 50 µM read?
A: < 10%

Q: With `COC(=O)c1cccc(N2CC(Oc3ccc(N(S(C)(=O)=O)S(C)(=O)=O)cc3)C2)c1-n1cccc1` [Example 124, Methyl 3-(3-(4-(N-(mesyl)methylsulfonamido)phenoxy)azetidin-1-yl)-2-(1H-pyrrol-1-yl)benzoate] as the molecule, how does the inhibition at 50 µM read?
A: 10 to 30%

same assay, conditions: Homo sapiens, C6661, 72 h, read-out: C666-1 cell viability single concentration (50 μM) inhibition rate, Ratio* (Inh %)

Q: For `Cn1ccc2cc(CN(C#Cc3cccc(C(=O)O)c3-n3cccc3)S(=O)(=O)c3ccc4occc4c3)ccc21` [Example 339, Lithium 3-((N-((1-methyl-1H-indol-5-yl)methyl)benzofuran-5-sulfonamido)ethynyl)-2-(1H-pyrrol-1-yl)benzoate], which inhibition at 50 µM is on record?
A: < 10%

Q: For `CS(=O)(=O)N(C#Cc1cccc(C(=O)O)c1-n1cccc1)Cc1ccccc1` [Example 382, Lithium 3-((N-benzylmethylsulfonamido)ethynyl)-2-(1H-pyrrol-1-yl)benzoate], which inhibition at 50 µM is on record?
A: < 10%

Q: For `O=C(O)c1cccc(C#CN(Cc2ccccc2F)S(=O)(=O)c2cccs2)c1-n1cccc1` [Example 325, Lithium 3-((N-(2-fluorobenzyl)thiophen-2-sulfonamido)ethynyl)-2-(1H-pyrrol-1-yl)benzoate], which inhibition at 50 µM is on record?
A: 30 to 50%
